{
  "source": "patent US20150181901A1",
  "about": "“Compositions and Methods for Tissue Storage” (priority 2012, published 2015)",
  "key": {"[1]": {"experiment": "Freeze/thaw cycling of meat soaked in trehalose solution: fluid loss and weight loss (chicken)", "protocol": "(§1) Variables included the high and low temperatures of the temperature range, and frequency of the freeze/thaw cycles. In one embodiment, treated meat samples were placed in a minus 40 degrees C. freezer for 24 hours, followed by room temperature for 6 hours, which was followed by 18 hours at 0.5 to 5.0 degrees C., in a refrigerator. This cycle was immediately followed by minus 40 degrees C. freezer for 24 h, room temperature for 6 h, which was followed by 18 hours at 0.5 to 5.0 degrees C., in a refrigerator. Chicken breast fillet, pork chops, and London broil beef, were obtained from local suppliers and were cut in water. Each type of meat was cut into four even-sized pieces, and the weight was recorded. Each piece was immersed separately in either water or in test solution, e.g., trehalose or saline, for 12 h. The meat was removed from the water, and excess water was blotted off. Place each sample in a Ziploc® plastic bag. Weights were recorded. The weighed samples were set in a container, and placed in a freezer, where each sample was at the same level (same level relative to the floor of the freezer). The freezer (minus 40 degrees C.) was Puffer Hubbard Model #4017A-U-A, Harris Manufacturing Co., North Billerica, Mass. […] Then, the following steps were used: Repeat Steps 1 to 4 until a total of 14 days have passed. Step 1. After 24 h in the freezer, remove the container bearing all of the samples. Take photographs of the samples and record the date. Thawing occurs when the meat is taken from the freezer and left in the refrigerator. Although the meat is completely thawed prior to 24 hours of incubation in the refrigerator, the time of 24 hours was used to standardize the procedure. Step 2. Place all samples (still in the same container) in refrigerator. Step 3. After in the refrigerator 24 h, then remove the container with all the samples, and take photos and record the date. Step 4. Place samples, still in the same container, in the freezer. As mentioned above, repeat Steps 1 to 4 until a total of 14 days have passed. Step 5. After the last sample photos were taken, samples were removed from its bag, and the weight was recorded after removing excess ice from the sample. The ice is left in the bag. Replace sample in Ziploc® bag. Place all bags at room temperature until all the ice has melted, and pour fluid into clear plastic tube with graduated side (fluid from each bag), and record the volumes of the fluid. Alternatively, volume can be determined with a pipette. Step 6. Place all weighed meat samples into the same Ziploc® bag, and place back in the refrigerator to thaw. After thawing, remove the meat samples from each bag, and pour excess fluid into graduated cylinder tubes (the tubes that held the ice that had melted), and record additional volumes. Between the first week (three freeze/thaw cycles) and the second week (three more freeze/thaw cycles), there was no re-exposure to trehalose. All samples were removed from the refrigerator. Liquid was in most of the sample bags. Fluid was removed by a pipette and the volume was recorded, and the meat sample was weighed. Samples of about 1-2 grams were taken using a no. 10 scalpel, and placed in formalin. FIG. 6 discloses the volume of fluid lost during the second week of freeze/thaw cycles."}, "[2]": {"experiment": "Freeze/thaw cycling of meat soaked in trehalose solution: fluid loss and weight loss (pork)", "conditions": "for weight loss: post 3 freeze/thaw cycles, first week (FIG. 4), 0% trehalose about 10%", "protocol": "as §1"}, "[3]": {"experiment": "Freeze/thaw cycling of meat soaked in trehalose solution: fluid loss and weight loss (beef)", "conditions": "for weight loss: post 3 freeze/thaw cycles, first week (FIG. 4), 0% trehalose about 18%", "protocol": "as §1"}, "[4]": {"conditions": "0%, 5%, 10%, 15% trehalose, three freeze/thaw cycles, first week (FIG. 1)"}, "[5]": {"conditions": "cumulative, first and second week (FIG. 12)"}, "[6]": {"conditions": "second week of freeze/thaw cycles (FIG. 8)"}, "[7]": {"conditions": "second week of freeze/thaw cycles, no re-exposure to trehalose"}},
  "note": "“And” between values parts separate entries of the source, which are not always exact repeats. Equal entries are not always repeated.",
  "data": [
    {"smiles": "OC[C@H]1O[C@H](O[C@H]2O[C@H](CO)[C@@H](O)[C@H](O)[C@H]2O)[C@H](O)[C@@H](O)[C@@H]1O", "note": "[trehalose, trehalose dihydride]", "values": [
      {"measurement": "loss of water/10 grams of meat", "setting": "[1]; chicken, 15% trehalose, first week (FIG. 5), 0% trehalose about 1.8", "value": "0.47 mL/10 grams of meat"},
      {"measurement": "trehalose concentration with maximal effect on cumulative weight loss", "setting": "[1]; chicken, cumulative, first and second week (FIG. 12)", "value": 15, "unit": "%"},
      {"measurement": "effect of trehalose on weight loss", "setting": "[1]; chicken, first week (FIG. 17)", "value": "reduction was about the same (plateau in trehalose effect) for 5%, 10%, and 15% trehalose"},
      {"measurement": "effect of trehalose on weight loss", "setting": "[1]; chicken, second week (FIG. 17)", "value": "weight reduction by trehalose was only found at 10% and 15% trehalose"},
      {"measurement": "trehalose concentration with lowest weight loss", "setting": "[1]; chicken, second week of freeze/thaw cycles (FIG. 8)", "value": 15, "unit": "%"},
      {"measurement": "trehalose concentration with maximal effect on reducing fluid loss", "setting": "[1]; chicken, second week of freeze/thaw cycles, no re-exposure to trehalose", "value": 15, "unit": "%"},
      {"measurement": "weight loss", "setting": "[1]; chicken, soaked in 5%, 10%, or 15% trehalose, post-soak weight vs post 3 freeze/thaw cycles, first week (FIG. 4), 0% trehalose 18%", "value": "10-11%"},
      {"measurement": "effect of trehalose concentration on volume of fluid lost", "setting": "[1]; poultry, 0%, 5%, 10%, 15% trehalose, three freeze/thaw cycles, first week (FIG. 1)", "value": "Increasing the concentration of trehalose resulted in decreasing volumes of fluid lost"},
      {"measurement": "effect of trehalose concentration on volume of fluid lost", "setting": "[2]; [4]", "value": "Increasing the concentration of trehalose resulted in decreasing volumes of fluid lost"},
      {"measurement": "loss of water/10 grams of meat", "setting": "[2]; 15% trehalose, first week (FIG. 5), 0% trehalose 1.0", "value": "0.4 mL/10 grams of meat"},
      {"measurement": "trehalose concentration with maximal effect on cumulative weight loss", "setting": "[2]; [5]", "value": 15, "unit": "%"},
      {"measurement": "effect of trehalose on weight loss", "setting": "[2]; first week (FIG. 18)", "value": "reduction was progressively effective for 5%, 10%, and 15% trehalose"},
      {"measurement": "effect of trehalose on weight loss", "setting": "[2]; second week (FIG. 18)", "value": "weight reduction seemed to plateau when trehalose was in the range of 5-15% trehalose"},
      {"measurement": "trehalose concentration with lowest weight loss", "setting": "[2]; [6]", "value": "5% (or 15%)"},
      {"measurement": "trehalose concentration with maximal effect on reducing fluid loss", "setting": "[2]; [7]", "value": 15, "unit": "%"},
      {"measurement": "weight loss", "setting": "[2]; soaked in 5% trehalose", "value": "about 9%"},
      {"measurement": "weight loss", "setting": "[2]; soaked in 10% trehalose", "value": "about 8%"},
      {"measurement": "weight loss", "setting": "[2]; soaked in 15% trehalose", "value": "about 5%"},
      {"measurement": "effect of trehalose concentration on volume of fluid lost", "setting": "[3]; [4]", "value": "Increasing the concentration of trehalose resulted in decreasing volumes of fluid lost"},
      {"measurement": "loss of water/10 grams of meat", "setting": "[3]; 10% trehalose, first week (FIG. 5), 0% trehalose about 1.8", "value": "about 0.9 mL/10 grams of meat"},
      {"measurement": "fluid loss for the first week relative to fluid loss for the second week", "setting": "[3]; at each respective trehalose value (FIG. 16)", "value": "2-3 times"},
      {"measurement": "trehalose concentration with maximal reduction in cumulative fluid loss", "setting": "[3]; cumulative, first and second week", "value": "10% and 10-15%"},
      {"measurement": "trehalose concentration with maximal effect on cumulative weight loss", "setting": "[3]; [5]", "value": "10% and 10-15%"},
      {"measurement": "effect of trehalose on weight loss", "setting": "[3]; first week (FIG. 19)", "value": "reduction was progressively effective for 5%, 10%-15% trehalose"},
      {"measurement": "effect of trehalose on weight loss", "setting": "[3]; second week (FIG. 19)", "value": "weight reduction seemed to plateau when trehalose was in the range of 5-15% trehalose"},
      {"measurement": "trehalose concentration with lowest weight loss", "setting": "[3]; [6]", "value": 15, "unit": "%"},
      {"measurement": "trehalose concentration with maximal effect on reducing fluid loss", "setting": "[3]; [7]", "value": 10, "unit": "%"},
      {"measurement": "weight loss", "setting": "[3]; soaked in 5% trehalose", "value": "~15", "unit": "%"},
      {"measurement": "weight loss", "setting": "[3]; soaked in 10% trehalose", "value": "about 8%"},
      {"measurement": "weight loss", "setting": "[3]; soaked in 15% trehalose", "value": "about 10%"}
    ]}
  ]
}
